Test results taken from patent publication US7435431B2, “Method for controlling body weight in estrogen-insufficient women” (Abbott Laboratories, priority 2004, dated 2008).

Assays:
Assay type in all cases: in vivo, rat
[1] = Experiment III: body weight gain, fat gain and food intake
Description: (§1) After five days of acclimatization, study animals were randomly assigned to one of 15 groups (n=10/group) and placed in individual cages. Rats were either sham-operated (SHAM) or ovariectomized (OVX) and fed casein-based diets for forty days. To ensure that sufficient bone loss has occurred in the OVX animals, bone mineral density was assessed via Dual Energy X-ray Absorptiometry (DEXA) prior to treatment. Groups 1 and 2 were fed casein-based diets throughout the entire length of the study and served as the control groups. Treatments were initiated for Groups 3-15 forty days post ovariectomy surgery and followed for 60 days. Bone mineral density was assessed before and after treatments. […] Urine was collected in acid-washed tubes, acidified with 0.03 ml of 6 mol/L of HCl per ml of urine and the total volume was measured. […] Initial and weekly body weights were measured. Sham animals were fed ad libitum and their precise food intakes were measured every three days. Before each feeding, the food remaining was weighed and the amount ingested was calculated. […]
(§2) The composition of the semi-purified casein-based diets are described in the following table. […] Sham animals were fed ad libitum and their precise food intakes were measured every three days. Before each feeding, the food remaining was weighed and the amount ingested was calculated. […]

[2] = test system: ovariectomized (OVX) rats; test: Experiment III: serum, urine and bone mineral and biochemical measures
Description: as §1, §2

[3] = test system: ovariectomized (OVX) rats; test: Experiment III: micro-computed tomography
Description: (§3) After five days of acclimatization, study animals were randomly assigned to one of 15 groups (n=10/group) and placed in individual cages. Rats were either sham-operated (SHAM) or ovariectomized (OVX) and fed casein-based diets for forty days. To ensure that sufficient bone loss has occurred in the OVX animals, bone mineral density was assessed via Dual Energy X-ray Absorptiometry (DEXA) prior to treatment. Groups 1 and 2 were fed casein-based diets throughout the entire length of the study and served as the control groups. Treatments were initiated for Groups 3-15 forty days post ovariectomy surgery and followed for 60 days. Bone mineral density was assessed before and after treatments. Two days prior to the termination of the study, rats were placed in individual metabolic cages and urine was collected from 18:00 h-6:00 h. During this period, the rats had no access to food. Urine was collected in acid-washed tubes, acidified with 0.03 ml of 6 mol/L of HCl per ml of urine and the total volume was measured. At the end of the study, the rats were anesthetized with ketomine and xylazine (intraperitoneally; 100 mg and 5 mg/kg body weight, respectively) and exsanguinated. Blood was collected, serum separated and aliquoted in small samples. All urine and plasma samples were frozen at −20° C. until analyses. Femurs and 3-5 lumbar spine were dissected out for bone analyses. Initial and weekly body weights were measured. Sham animals were fed ad libitum and their precise food intakes were measured every three days. Before each feeding, the food remaining was weighed and the amount ingested was calculated. Rats in the other groups were pair-fed to the mean intake of the sham animals and had free access to deionized water.
(§4) The design was a randomized, prospective, single-blind, positive controlled, parallel study. Control groups were fed a casein-based diet. Treatment groups were fed semi-purified diets containing casein, fructooligosaccharides, whole dried plum powder or dried plum polyphenol solids, dried plum juice solids, dried plum puree solids, dried plum skin solids or raisin solids or fig solids or date solids or blueberry solids or HMB. The treatment groups are outlined in following table:
(§5) One hundred fifty, (n=10/group) ninety day old Harlan Sprague-Dawley, 210 gm, female rats were purchased from Harlan Sprague Dawley Inc. (Indianapolis, Ind.). Upon arrival at the institution, rats were individually housed in stainless steel wire mesh cages in an environmentally controlled animal laboratory at 25° C. with a 12 h light-dark cycle. The rats had free access to deionized water and semi-purified diets. They were handled according to National Institutes of Health guidelines for humane treatment of experimental animals.
The composition of the semi-purified casein-based diets are described in the following table. To ensure equivalency, the diets were assayed for carbohydrate, protein, fat, calcium and phosphorus content prior to the feeding protocol. All diets were prepared to be isonitrogenous, isocaloric and equivalent in calcium and phosphorus content. The diets consisted of approximately 22% protein, 67% carbohydrate and 11% fat. […]

[4] = test system: ovariectomized (OVX) rats; test: Experiment III: bone mineral density and bone mineral content (DEXA)
Description: as §3, §4, §5
The composition of the semi-purified casein-based diets are described in the following table. To ensure equivalency, the diets were assayed for carbohydrate, protein, fat, calcium and phosphorus content prior to the feeding protocol. All diets were prepared to be isonitrogenous, isocaloric and equivalent in calcium and phosphorus content. The diets consisted of approximately 22% protein, 67% carbohydrate and 11% fat. The treatment diets also contained 7.5% or 5% (w/w) dried plum powder (Sunsweet Growers, Inc., Pleasanton, Calif.), or 7.5% (w/w) dried plum solids from juice concentrate (Sunsweet Growers, Inc., Pleasanton, Calif.), or 7.5% (w/w) dried plum solids from puree (Sunsweet Growers, Inc., Pleasanton, Calif.), or 7.5% (w/w) dried plum solids from pulp/skins (Sunsweet Growers, Inc., Pleasanton, Calif.), or dried plum polyphenols equivalent to 7.5% (w/w) dried plum powder, or 7.5% (w/w) raisin solids (Mid America), or 7.5% (w/w) fig solids (Mid America), or 7.5% (w/w) date solids (Mid America), or 7.5% (w/w) blueberry solids (Mid America), or 0.25% (w/w) HMB (Metabolic Technologies, Inc., Ames, Iowa) and 5% or 2% (w/w) short chain fructooligosaccharides (NutraFlora®, FOS Golden Technologies, Inc). […]

SMILES: CC(C)(O)CC(=O)O [HMB, beta-hydroxy beta methylbutyrate]
- Body Weight Gain during Treatment period Mean ± SE ([1]; OVX rats, pair-fed to SHAM): 29.0 ± 6.9
- fat gain during the treatment period ([1]; compared to OVX-control): significantly less fat gain
- Serum IGF-1 levels compared to OVX-control [2]: significant increases
- Bone Volume/Total Volume (Ranked) Mean ± SE [3]: 0.1141 ± 0.00658b
- Connective Density (Ranked) Mean ± SE [3]: 32.865 ± 2.472b
- Structural Model Index (Ranked) Mean ± SE [3]: 1.931 ± 0.04093a
- Trabecular No. (Ranked) Mean ± SE [3]: 1.649 ± 0.078c 1/mm
- Trabecular separation (Ranked) Mean ± SE [3]: 0.6555 ± 0.03361a mm
- effects on BMD [4]: no significant effects
- reversal of osteopenia [4]: did not reverse established osteopenia
- Bone mineral content (LS Mean ± SE) Femur ([4]; OVX rats): 0.4155 ± 0.00996
- Bone mineral content (LS Mean ± SE) Spine ([4]; OVX rats): 0.1187 ± 0.00419
- Bone mineral content (LS Mean ± SE) Whole body ([4]; OVX rats): 9.7590 ± 0.1323
- Bone mineral density (Mean ± SE) Femur ([4]; OVX rats): 0.2198 ± 0.00293b
- Bone mineral density (Mean ± SE) Spine ([4]; OVX rats): 0.2341 ± 0.0035bc
- Change in Bone mineral density (from Baseline) Whole body ([4]; OVX rats, baseline to final): 0.00298 ± 0.00144ab
- Bone mineral density (Mean ± SE) Whole body ([4]; OVX rats, casein-based diets): 0.1599 ± 0.0016b
